Reference: the kinase profiling compilation of Christmann-Franck et al. (2016)

Columns and labels:
AURKC (human) = AURKC (human) (UniProt Q9UQB9); experiment: KINOMEscan competition binding
MLTK (human) = MLTK (human) (UniProt Q9NYL2); experiment: KINOMEscan competition binding
[1] = target: JAK3 JH1 catalytic (human) (UniProt P52333); experiment: KINOMEscan competition binding
CSNK1G2 (human) = CSNK1G2 (human) (UniProt P78368)
PDGFRB (human) = PDGFRB (human) (UniProt P09619)
CSNK1E (human) = CSNK1E (human) (UniProt P49674)
KIT (human) = KIT (human) (UniProt P10721)
DDR1 (human) = DDR1 (human) (UniProt Q08345)
MAPK8 (human) = MAPK8 (human) (UniProt P45983); experiment: radiometric filter-binding kinase assay
RIPK2 (human) = RIPK2 (human) (UniProt O43353); experiment: radiometric filter-binding kinase assay
ERBB4 (human) = ERBB4 (human) (UniProt Q15303); experiment: radiometric filter-binding kinase assay
EPHB4 (human) = EPHB4 (human) (UniProt P54760); experiment: radiometric filter-binding kinase assay
MAPK9 (human) = MAPK9 (human) (UniProt P45984); experiment: radiometric filter-binding kinase assay
EPHB2 (human) = EPHB2 (human) (UniProt P29323); experiment: radiometric filter-binding kinase assay
GSK3B (human) = GSK3B (human) (UniProt P49841); experiment: radiometric filter-binding kinase assay
MAP3K7 (human) = MAP3K7 (human) (UniProt O43318); experiment: radiometric filter-binding kinase assay
MAP3K9 (human) = MAP3K9 (human) (UniProt P80192); experiment: radiometric filter-binding kinase assay
FLT1 (human) = FLT1 (human) (UniProt P17948); experiment: radiometric filter-binding kinase assay
MAPK10 (human) = MAPK10 (human) (UniProt P53779); experiment: radiometric filter-binding kinase assay
MKNK2 (human) = MKNK2 (human) (UniProt Q9HBH9)
PRKX (human) = PRKX (human) (UniProt P51817)
HIPK4 (human) = HIPK4 (human) (UniProt Q8NE63)
CSF1R (human) = CSF1R (human) (UniProt P07333)
YES1 (human) = YES1 (human) (UniProt P07947); experiment: radiometric filter-binding kinase assay
AKT3 (human) = AKT3 (human) (UniProt Q9Y243)
AKT1 (human) = AKT1 (human) (UniProt P31749)
SLK (human) = SLK (human) (UniProt Q9H2G2)
CaMK1 (human) = CaMK1 (human) (UniProt Q14012); experiment: radiometric filter-binding kinase assay
[2] = target: AKT2 (human), P31751 [S474D]; experiment: radiometric filter-binding kinase assay
HIPK1 (human) [3] = target: HIPK1 (human) (UniProt Q86Z02)
IRAK1 (human) [4] = target: IRAK1 (human) (UniProt P51617)
MAPK15 (human) = MAPK15 (human) (UniProt Q8TD08); experiment: radiometric filter-binding kinase assay
CSNK2A1 (human) = CSNK2A1 (human) (UniProt P68400); experiment: radiometric filter-binding kinase assay
HIPK1 (human) [5] = target: HIPK1 (human) (UniProt Q86Z02); experiment: radiometric filter-binding kinase assay
NUAK1 (human) = NUAK1 (human) (UniProt O60285); experiment: radiometric filter-binding kinase assay
GCK (human) = GCK (human) (UniProt Q12851); experiment: radiometric filter-binding kinase assay
JAK2 JH1 JH2 (human) = JAK2 JH1 JH2 (human) (UniProt O60674); experiment: radiometric filter-binding kinase assay
CLK2 (human) = CLK2 (human) (UniProt P49760); experiment: radiometric filter-binding kinase assay
IRAK1 (human) [6] = target: IRAK1 (human) (UniProt P51617); experiment: radiometric filter-binding kinase assay

Chain of GSK3B (human) (P49841 whole entry, looked up): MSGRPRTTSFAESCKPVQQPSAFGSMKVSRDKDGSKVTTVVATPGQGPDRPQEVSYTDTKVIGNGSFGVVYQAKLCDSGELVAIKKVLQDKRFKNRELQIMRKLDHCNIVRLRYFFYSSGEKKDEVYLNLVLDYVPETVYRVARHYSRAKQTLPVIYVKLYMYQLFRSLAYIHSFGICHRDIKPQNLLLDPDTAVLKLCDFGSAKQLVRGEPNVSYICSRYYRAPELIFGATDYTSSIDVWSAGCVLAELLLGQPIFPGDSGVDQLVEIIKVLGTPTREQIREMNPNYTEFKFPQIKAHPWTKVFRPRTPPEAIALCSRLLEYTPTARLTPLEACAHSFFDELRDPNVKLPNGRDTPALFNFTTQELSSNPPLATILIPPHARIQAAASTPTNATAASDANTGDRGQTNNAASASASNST
Chain of MLTK (human) (Q9NYL2 whole entry, looked up): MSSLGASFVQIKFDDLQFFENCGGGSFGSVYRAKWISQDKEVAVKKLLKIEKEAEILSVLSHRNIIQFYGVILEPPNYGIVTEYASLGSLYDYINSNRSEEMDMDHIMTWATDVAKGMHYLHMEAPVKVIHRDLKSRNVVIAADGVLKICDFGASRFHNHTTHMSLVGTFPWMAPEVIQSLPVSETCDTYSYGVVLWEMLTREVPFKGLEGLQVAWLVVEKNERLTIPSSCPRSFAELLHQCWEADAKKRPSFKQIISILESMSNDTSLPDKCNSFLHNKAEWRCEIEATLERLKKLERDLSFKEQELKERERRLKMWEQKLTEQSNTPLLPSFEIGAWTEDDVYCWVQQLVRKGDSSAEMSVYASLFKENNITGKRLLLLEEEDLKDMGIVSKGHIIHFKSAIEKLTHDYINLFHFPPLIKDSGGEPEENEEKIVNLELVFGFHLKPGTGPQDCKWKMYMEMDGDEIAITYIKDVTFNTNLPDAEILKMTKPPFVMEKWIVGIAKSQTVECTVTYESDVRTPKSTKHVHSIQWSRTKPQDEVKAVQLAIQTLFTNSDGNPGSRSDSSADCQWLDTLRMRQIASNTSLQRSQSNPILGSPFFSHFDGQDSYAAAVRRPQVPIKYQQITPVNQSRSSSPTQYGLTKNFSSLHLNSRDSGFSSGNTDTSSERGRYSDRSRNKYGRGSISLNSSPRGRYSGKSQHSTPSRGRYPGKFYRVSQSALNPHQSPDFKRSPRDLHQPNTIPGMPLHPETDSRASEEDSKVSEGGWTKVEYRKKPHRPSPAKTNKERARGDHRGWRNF
Chain of MAPK8 (human) (P45983 whole entry, looked up): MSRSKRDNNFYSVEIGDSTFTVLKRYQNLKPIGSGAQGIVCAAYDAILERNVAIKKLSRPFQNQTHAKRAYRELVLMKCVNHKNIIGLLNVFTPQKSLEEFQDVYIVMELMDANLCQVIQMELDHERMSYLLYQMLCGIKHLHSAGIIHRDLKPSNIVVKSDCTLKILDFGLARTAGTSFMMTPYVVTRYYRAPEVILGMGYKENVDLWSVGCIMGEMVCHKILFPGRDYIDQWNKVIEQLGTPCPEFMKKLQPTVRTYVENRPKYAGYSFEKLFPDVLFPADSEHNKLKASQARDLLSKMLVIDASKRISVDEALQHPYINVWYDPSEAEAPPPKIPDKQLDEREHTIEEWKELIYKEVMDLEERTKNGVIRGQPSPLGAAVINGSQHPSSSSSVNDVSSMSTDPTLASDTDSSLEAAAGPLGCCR
Chain of MAP3K7 (human) (O43318 whole entry, looked up): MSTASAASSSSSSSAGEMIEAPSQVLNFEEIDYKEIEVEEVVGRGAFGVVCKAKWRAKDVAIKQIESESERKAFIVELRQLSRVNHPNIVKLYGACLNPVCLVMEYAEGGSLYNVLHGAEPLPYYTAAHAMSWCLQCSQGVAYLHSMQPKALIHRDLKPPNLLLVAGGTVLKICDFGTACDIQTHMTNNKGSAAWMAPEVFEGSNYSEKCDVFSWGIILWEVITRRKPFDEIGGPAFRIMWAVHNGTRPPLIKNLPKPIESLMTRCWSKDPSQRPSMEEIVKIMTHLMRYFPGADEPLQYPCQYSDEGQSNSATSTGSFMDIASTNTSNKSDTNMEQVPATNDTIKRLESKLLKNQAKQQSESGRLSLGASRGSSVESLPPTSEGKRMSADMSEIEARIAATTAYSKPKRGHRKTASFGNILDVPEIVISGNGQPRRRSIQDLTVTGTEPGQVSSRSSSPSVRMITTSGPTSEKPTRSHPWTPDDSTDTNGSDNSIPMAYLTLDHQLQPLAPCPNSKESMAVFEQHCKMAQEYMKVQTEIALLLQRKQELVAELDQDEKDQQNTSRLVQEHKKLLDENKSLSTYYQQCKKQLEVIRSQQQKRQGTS
Chain of AURKC (human) (Q9UQB9 whole entry, looked up): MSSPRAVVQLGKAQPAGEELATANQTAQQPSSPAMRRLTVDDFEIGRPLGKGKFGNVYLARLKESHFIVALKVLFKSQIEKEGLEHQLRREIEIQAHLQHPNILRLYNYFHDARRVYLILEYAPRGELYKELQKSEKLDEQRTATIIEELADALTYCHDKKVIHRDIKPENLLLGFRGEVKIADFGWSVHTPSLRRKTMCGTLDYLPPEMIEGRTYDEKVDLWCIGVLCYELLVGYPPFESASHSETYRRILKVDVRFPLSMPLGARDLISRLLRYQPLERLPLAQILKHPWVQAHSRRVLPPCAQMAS
Chain of KIT (human) (P10721 whole entry, looked up): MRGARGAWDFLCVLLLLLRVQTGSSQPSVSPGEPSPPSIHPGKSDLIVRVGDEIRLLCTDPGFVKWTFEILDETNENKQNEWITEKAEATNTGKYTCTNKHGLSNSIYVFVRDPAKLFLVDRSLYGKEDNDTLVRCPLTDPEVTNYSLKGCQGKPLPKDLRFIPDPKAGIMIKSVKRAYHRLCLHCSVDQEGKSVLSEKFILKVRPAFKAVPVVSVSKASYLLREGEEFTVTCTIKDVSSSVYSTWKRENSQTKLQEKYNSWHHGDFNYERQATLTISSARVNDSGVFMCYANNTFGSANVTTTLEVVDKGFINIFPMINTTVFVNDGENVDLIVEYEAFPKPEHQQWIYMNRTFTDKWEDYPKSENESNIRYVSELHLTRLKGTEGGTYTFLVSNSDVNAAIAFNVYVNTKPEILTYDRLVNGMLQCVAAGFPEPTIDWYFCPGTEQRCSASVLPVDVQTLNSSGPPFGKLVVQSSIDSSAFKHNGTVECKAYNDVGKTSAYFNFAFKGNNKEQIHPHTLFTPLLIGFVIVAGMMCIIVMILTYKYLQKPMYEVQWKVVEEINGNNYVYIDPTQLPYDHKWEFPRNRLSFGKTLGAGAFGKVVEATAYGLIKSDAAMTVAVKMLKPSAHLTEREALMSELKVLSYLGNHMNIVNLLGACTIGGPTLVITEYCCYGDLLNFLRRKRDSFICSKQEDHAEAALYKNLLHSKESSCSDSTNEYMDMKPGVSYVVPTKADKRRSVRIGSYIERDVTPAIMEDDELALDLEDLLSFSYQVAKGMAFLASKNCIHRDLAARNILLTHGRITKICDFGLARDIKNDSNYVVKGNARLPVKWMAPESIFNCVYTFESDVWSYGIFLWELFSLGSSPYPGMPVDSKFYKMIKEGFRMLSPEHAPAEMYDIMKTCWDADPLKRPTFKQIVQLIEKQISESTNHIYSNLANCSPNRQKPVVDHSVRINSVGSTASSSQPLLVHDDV
Chain of JAK3 JH1 catalytic (human) (P52333 whole entry, looked up): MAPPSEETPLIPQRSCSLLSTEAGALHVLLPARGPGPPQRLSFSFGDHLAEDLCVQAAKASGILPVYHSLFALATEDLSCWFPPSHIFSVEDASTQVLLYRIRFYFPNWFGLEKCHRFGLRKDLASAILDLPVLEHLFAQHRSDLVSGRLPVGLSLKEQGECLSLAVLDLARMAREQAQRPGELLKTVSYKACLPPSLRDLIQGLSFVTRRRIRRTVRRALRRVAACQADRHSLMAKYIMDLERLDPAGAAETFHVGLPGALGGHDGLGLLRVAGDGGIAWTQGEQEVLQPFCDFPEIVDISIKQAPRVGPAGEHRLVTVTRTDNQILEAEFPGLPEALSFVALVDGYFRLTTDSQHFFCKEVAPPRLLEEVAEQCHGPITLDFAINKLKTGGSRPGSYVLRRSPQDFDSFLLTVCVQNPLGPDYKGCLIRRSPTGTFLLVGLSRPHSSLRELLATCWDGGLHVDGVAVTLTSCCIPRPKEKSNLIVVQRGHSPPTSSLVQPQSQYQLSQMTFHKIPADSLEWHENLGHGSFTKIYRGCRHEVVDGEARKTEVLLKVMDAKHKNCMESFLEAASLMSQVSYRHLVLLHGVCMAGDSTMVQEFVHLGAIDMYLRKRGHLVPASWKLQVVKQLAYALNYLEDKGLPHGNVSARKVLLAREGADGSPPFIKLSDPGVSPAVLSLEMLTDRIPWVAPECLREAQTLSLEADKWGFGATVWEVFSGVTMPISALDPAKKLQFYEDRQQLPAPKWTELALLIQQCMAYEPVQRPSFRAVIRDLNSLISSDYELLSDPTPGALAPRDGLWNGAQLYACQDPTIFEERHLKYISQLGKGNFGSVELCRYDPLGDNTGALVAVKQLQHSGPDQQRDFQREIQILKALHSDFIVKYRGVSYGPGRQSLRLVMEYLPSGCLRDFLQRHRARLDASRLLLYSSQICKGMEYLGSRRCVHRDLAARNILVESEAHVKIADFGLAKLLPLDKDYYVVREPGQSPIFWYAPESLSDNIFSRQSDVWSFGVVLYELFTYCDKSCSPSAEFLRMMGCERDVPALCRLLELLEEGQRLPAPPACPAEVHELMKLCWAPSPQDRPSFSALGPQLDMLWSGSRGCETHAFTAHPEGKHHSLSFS
Chain of CaMK1 (human) (Q14012 whole entry, looked up): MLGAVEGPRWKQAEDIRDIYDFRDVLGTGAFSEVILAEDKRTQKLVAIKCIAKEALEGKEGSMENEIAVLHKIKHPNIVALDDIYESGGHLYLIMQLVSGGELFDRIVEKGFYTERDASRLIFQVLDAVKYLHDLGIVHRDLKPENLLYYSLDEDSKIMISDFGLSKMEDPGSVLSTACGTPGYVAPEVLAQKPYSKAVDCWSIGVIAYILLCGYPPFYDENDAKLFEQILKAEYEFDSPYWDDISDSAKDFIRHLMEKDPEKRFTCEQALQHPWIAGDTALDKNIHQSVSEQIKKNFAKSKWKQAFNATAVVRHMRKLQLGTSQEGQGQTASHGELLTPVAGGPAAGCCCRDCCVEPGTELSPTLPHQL

`CN(C)C/C=C/C(=O)Nc1cccc(C(=O)Nc2ccc(Nc3nccc(-c4c(-c5ccccc5)nn5ccccc45)n3)cc2)c1` showed a kinase still bound, per cent of control (AURKC (human); compound 1.0 µM) of 84%, a kinase still bound, per cent of control (MLTK (human); compound 1.0 µM) of 11% and a kinase still bound, per cent of control ([1]; compound 1.0 µM) of 49%. The IC50 (CSNK1G2 (human)) was 161 nM, the IC50 (PDGFRB (human)) was 1030 nM and the IC50 (CSNK1E (human)) was 82.9 nM. The IC50 (KIT (human)) was 1320 nM, the IC50 (DDR1 (human)) was 56.1 nM and the IC50 (MAPK8 (human)) was 39 nM. For the same compound, the IC50 (RIPK2 (human)) was 42 nM, the IC50 (ERBB4 (human)) was 28.9 nM and the IC50 (EPHB4 (human)) was 121 nM. For the same compound, the IC50 (MAPK9 (human)) was 23 nM, the IC50 (EPHB2 (human)) was 138 nM and the IC50 (GSK3B (human)) was 32 nM. It also gave an IC50 (MAP3K7 (human)) of 351 nM, an IC50 (MAP3K9 (human)) of 45 nM and an IC50 (FLT1 (human)) of 18 nM. It also gave an IC50 (MAPK10 (human)) of 8.4 nM.

With `Cc1cc(NC(=O)c2cccc(NC(=O)/C=C/CN(C)C)c2)ccc1Nc1nccc(-c2cccnc2)n1` the kinase still bound, per cent of control (AURKC (human); compound 1.0 µM) was 95%, the kinase still bound, per cent of control (MLTK (human); compound 1.0 µM) was 100% and the kinase still bound, per cent of control ([1]; compound 1.0 µM) was 87%. It also gave an IC50 (MKNK2 (human)) of 238 nM, an IC50 (PRKX (human)) of 7.5 µM and an IC50 (HIPK4 (human)) of 8.97 µM. The IC50 (CSF1R (human)) was 287 nM, the IC50 (PDGFRB (human)) was > 10000 nM and the IC50 (KIT (human)) was > 10000 nM. The IC50 (MAP3K7 (human)) was 7720 nM and the IC50 (YES1 (human)) was 1280 nM.

`Cc1ccc(NC(=O)c2ccc(NC(=O)/C=C/CN(C)C)cc2)cc1Nc1nccc(-c2cccnc2)n1` gave a kinase still bound, per cent of control (AURKC (human); compound 10.0 µM) of 67%, a kinase still bound, per cent of control (MLTK (human); compound 10.0 µM) of 78% and a kinase still bound, per cent of control ([1]; compound 10.0 µM) of 100%.

`CN(C)C/C=C/C(=O)Nc1cccc(C(=O)Nc2ccc(Nc3nccc(/C(C#N)=C4\Nc5ccccc5S4)n3)cc2)c1` showed a kinase still bound, per cent of control (AURKC (human); compound 1.0 µM) of 76%, a kinase still bound, per cent of control (MLTK (human); compound 1.0 µM) of 98% and a kinase still bound, per cent of control ([1]; compound 1.0 µM) of 83%. The IC50 (AKT3 (human)) was > 370 nM, the IC50 (AKT1 (human)) was > 370 nM and the IC50 (SLK (human)) was 884 nM. It also gave an IC50 (MAPK8 (human)) of 327 nM, an IC50 (CaMK1 (human)) of 900 nM and an IC50 (MAPK9 (human)) of 490 nM. For the same compound, the IC50 [2] was 970 nM, the IC50 (GSK3B (human)) was 84 nM and the IC50 (MAP3K7 (human)) was 866 nM. For the same compound, the IC50 (MAP3K9 (human)) was 104 nM, the IC50 (FLT1 (human)) was 134 nM and the IC50 (MAPK10 (human)) was 354 nM.

`CN(C)C/C=C/C(=O)Nc1cccc(C(=O)Nc2ccc(Nc3nccc(-c4cccnc4)n3)cc2)c1` gave a kinase still bound, per cent of control (AURKC (human); compound 1.0 µM) of 33%, a kinase still bound, per cent of control (MLTK (human); compound 1.0 µM) of 46% and a kinase still bound, per cent of control ([1]; compound 1.0 µM) of 27%. For the same compound, the IC50 (HIPK1 (human) [3]) was 5.01 µM, the IC50 (KIT (human)) was 2410 nM and the IC50 (IRAK1 (human) [4]) was 14.1 nM. For the same compound, the IC50 (MAPK8 (human)) was 41 nM, the IC50 (RIPK2 (human)) was 729 nM and the IC50 (MAPK15 (human)) was 183 nM. For the same compound, the IC50 (CSNK2A1 (human)) was 506 nM, the IC50 (HIPK1 (human) [5]) was 7.61 µM and the IC50 (GSK3B (human)) was 933 nM. For the same compound, the IC50 (MAP3K7 (human)) was 833 nM, the IC50 (NUAK1 (human)) was 144 nM and the IC50 (GCK (human)) was 20.5 µM. For the same compound, the IC50 (JAK2 JH1 JH2 (human)) was 2510 nM, the IC50 (CLK2 (human)) was 299 nM and the IC50 (IRAK1 (human) [6]) was 175 nM.
